Assay results as given in the NIST ThermoML archive (doi:10.1016/j.jct.2010.05.007).
Numbers after ± are expanded uncertainties.

Tests used:
[1] = Crystal 1; Adiabatic calorimetry
[2] = Molar enthalpy of transition or fusion; conditions: Crystal 1; Adiabatic calorimetry
[3] = molar heat capacity at constant pressure; conditions: 298 K; 101.33 kPa; Liquid; Vacuum adiabatic calorimetry

With `CCCCn1cc[n+](C)c1.[I-]` [1-butyl-3-methylimidazolium iodide] the Triple point temperature [1] was 291.87 ± 0.05 K, the “Molar enthalpy of transition or fusion” value [2] was 4.54 ± 0.0478 kcal/mol and the “molar heat capacity at constant pressure” value [3] was 310 ± 2.4 J/K/mol.
